# Reference: ChEMBL document CHEMBL1201862, “PubChem BioAssay data set” (2004)
# Calls of active or inactive are those of the source.
# What was measured:
# [1] = HepG2 cell cytotoxicity, dose response, cytotoxicity control for Shn3 inhibitor project, CellTiter-Glo, cherry-picked (AID 624134); format: functional, cell-based
# [2] = biological target: Peroxisome proliferator-activated receptor gamma/Nuclear receptor coactivator 1 (Homo sapiens, UniProt P37231); experiment: (§1) TR-FRET dose response biochemical High Throughput Screening assay for agonists of the steroid receptor coactivator 1 (SRC-1) recruitment by the peroxisome proliferator-activated receptor gamma (PPAR gamma): non-selective agonists. [Related pubchem assays (depositor defined):AID1300, AID1808, AID504735, AID631]; format: protein assay
# [3] = control 3'UTR Renilla luciferase suppression, dose response, counter-screen for Shn3 inhibitor project, cell-based, Clone20-Shn3RL, cherry-picked (AID 624133); format: functional
# Paired box protein Pax-8 = Paired box protein Pax-8 (Homo sapiens, UniProt Q06710); experiment: inhibitors of PAX8-driven TPO luciferase reporter, dose response, RMG-I cells, cherry-pick (AID 687027); format: functional, cell-based;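 also: luciferase reporter driven by Pax8 target thyroperoxidase promoter measured by SteadyGlo luminescence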
# [4] = Shn3 3'UTR reporter inhibitors, dose response, cell-based, Clone20 osteoblasts, firefly luciferase, cherry-picked (AID 624132); format: functional;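 also: firefly luciferase luminescence from reporter carrying the Shn3 3'UTR in osteoblasts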
# [5] = biological target: Peroxisome proliferator-activated receptor gamma/Nuclear receptor coactivator 3 (Homo sapiens, UniProt P37231); experiment: as §1, with “3 (SRC-3)” for “1 (SRC-1)”, “assays: 1301 (Confirmation screen.), 1048 (Primary screen.)]” for “assays (depositor defined):AID1300, AID1808, AID504735, AID631]”; format: functional
# [6] = non-specific cell cytotoxicity, dose response, cytotoxicity control for PAX8 inhibitor project, plate reader, dry powder samples (AID 743021); format: functional, cell-based
# [7] = biological target: Peroxisome proliferator-activated receptor gamma/Nuclear receptor coactivator 2 (Homo sapiens, UniProt P37231); experiment: TR-FRET dose response biochemical High Throughput Screening assay for agonists of the steroid receptor coactivator 2 (SRC-2) recruitment by the peroxisome proliferator-activated receptor gamma (PPAR gamma): non-selective agonists. [Related pubchem assays: 1297, 1032 ]; format: functional
# HeLa = experiment: Cytotoxicity counterscreen assay for transcriptional activators of heat shock protein 70 (Hsp70). [Related pubchem assays: 1203, 1252 ]; format: functional; settings: Homo sapiens;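 also: cells exposed to compound for 16 hours before readout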
# [8] = biological target: T1, Short transient receptor potential channel 4 (Mus musculus, UniProt Q9QUQ5); experiment: mouse TRPC4 channel inhibitors, dose response, cell-based, HEK293 TRPC4/mu-opioid, Fluo-4 calcium (AID 434942); format: functional;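 also: potency of inhibitors blocking the TRPC4 calcium response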
# T1 sequence (Q9QUQ5 whole entry): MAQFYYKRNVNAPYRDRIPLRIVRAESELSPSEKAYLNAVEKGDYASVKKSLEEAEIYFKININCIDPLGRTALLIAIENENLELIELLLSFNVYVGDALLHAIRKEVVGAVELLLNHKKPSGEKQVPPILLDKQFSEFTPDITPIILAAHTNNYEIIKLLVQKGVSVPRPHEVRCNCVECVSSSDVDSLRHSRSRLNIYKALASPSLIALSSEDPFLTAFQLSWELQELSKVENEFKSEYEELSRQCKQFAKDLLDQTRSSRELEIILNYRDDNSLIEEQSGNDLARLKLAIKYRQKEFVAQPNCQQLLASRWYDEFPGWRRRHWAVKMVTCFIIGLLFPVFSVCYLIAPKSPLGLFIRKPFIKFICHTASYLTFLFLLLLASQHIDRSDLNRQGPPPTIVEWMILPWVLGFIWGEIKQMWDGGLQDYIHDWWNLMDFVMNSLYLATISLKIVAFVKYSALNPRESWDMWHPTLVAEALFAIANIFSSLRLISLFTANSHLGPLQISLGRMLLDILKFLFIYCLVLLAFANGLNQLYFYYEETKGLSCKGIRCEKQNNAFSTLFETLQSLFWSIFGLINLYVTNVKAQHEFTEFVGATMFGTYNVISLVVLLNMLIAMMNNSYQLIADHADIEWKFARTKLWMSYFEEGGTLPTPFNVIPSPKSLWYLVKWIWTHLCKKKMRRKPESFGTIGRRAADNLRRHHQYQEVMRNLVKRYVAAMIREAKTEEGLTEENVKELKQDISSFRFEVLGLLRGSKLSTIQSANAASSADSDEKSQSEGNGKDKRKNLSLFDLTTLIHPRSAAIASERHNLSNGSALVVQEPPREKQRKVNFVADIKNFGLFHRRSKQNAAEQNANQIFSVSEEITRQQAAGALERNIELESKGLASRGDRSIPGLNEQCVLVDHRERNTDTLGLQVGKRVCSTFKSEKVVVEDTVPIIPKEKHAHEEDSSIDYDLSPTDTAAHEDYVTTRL
# [9] = biological target: T2, Voltage-gated N-type calcium channel alpha-1B subunit/Amyloid beta A4 precursor protein-binding family A member 1 (Homo sapiens, UniProt Q00975+Q02410); format: protein assay
# [10] = biological target: T2, Voltage-gated N-type calcium channel alpha-1B subunit/Amyloid beta A4 precursor protein-binding family A member 1; format: protein assay; remark: listed apart in the source
# [11] = test system: Streptococcus sp. 'group A'; experiment: growth inhibition of control SK(-) GAS strain, dose response, counter-screen for streptokinase expression inhibitor project, luminescence, kanamycin, BacTiterGlo, confirmation (AID 1900); format: functional, organism-based
# Streptococcus = experiment: Group A Streptococcus viability loss, dose response, counter-screen for streptokinase expression inhibitor project, luminescence, BacTiterGlo (AID 1915); format: functional, organism-based;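 also: potency for reduction of bacterial viability or growth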
# [12] = biological target: T3, Alkaline phosphatase, tissue-nonspecific isozyme (Homo sapiens, UniProt P05186); experiment: TNAP enzyme inhibition by screening hits, dose response, selectivity assay for mouse IAP inhibitor project, biochemical, human TNAP, uHTS hits (AID 488906); format: functional
# T3 sequence (P05186 whole entry): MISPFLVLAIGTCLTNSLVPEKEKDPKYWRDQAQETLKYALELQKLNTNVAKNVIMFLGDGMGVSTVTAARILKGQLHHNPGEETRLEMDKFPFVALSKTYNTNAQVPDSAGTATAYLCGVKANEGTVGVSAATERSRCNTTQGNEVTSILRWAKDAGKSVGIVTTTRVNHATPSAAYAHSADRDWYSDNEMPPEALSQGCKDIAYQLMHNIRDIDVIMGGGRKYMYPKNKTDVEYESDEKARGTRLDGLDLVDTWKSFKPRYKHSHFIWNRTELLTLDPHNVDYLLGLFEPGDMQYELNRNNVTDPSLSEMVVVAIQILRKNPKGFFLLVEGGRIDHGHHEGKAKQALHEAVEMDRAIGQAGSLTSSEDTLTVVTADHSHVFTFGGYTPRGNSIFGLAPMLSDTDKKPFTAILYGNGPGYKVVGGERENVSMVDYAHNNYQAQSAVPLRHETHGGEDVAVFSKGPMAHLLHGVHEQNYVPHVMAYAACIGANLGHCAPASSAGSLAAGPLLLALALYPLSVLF
# [13] = biological target: Intestinal-type alkaline phosphatase (Mus musculus, UniProt P24822); experiment: PubChem AID 488785; format: functional
# Streptokinase A = biological target: T4, Streptokinase A (Streptococcus pyogenes serotype M1, UniProt P10520); experiment: S. pyogenes streptokinase expression inhibitors, potency, dose response, plasminogen activation absorbance, OD405 (AID 1914); format: functional, Streptococcus pyogenes M1 GAS;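 also: secreted streptokinase activity via plasminogen activation per viability signal from cell pellet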
# T4 sequence (P10520 whole entry): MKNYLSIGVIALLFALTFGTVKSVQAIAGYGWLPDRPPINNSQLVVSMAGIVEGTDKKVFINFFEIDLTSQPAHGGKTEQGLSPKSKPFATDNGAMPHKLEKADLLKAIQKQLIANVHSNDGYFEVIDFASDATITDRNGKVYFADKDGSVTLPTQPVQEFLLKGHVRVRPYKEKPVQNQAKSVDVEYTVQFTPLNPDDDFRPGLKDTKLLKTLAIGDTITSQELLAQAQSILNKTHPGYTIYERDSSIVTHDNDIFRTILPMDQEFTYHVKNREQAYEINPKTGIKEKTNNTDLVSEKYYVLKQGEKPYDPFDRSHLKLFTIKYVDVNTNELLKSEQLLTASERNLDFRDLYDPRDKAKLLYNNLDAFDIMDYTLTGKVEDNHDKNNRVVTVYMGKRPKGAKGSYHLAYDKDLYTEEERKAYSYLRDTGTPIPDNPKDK
# [14] = biological target: Intestinal-type alkaline phosphatase (Homo sapiens, UniProt P09923); experiment: inhibition of human intestinal alkaline phosphatase – biochemical, dose response (AID 488876); format: functional
# [15] = biological target: Alkaline phosphatase, placental type (Homo sapiens, UniProt P05187); experiment: PLAP enzyme inhibitors, confirmation, biochemical, luminescence (AID 1512); format: functional
# Chain of Intestinal-type alkaline phosphatase (Homo sapiens, UniProt P09923) (P09923 whole entry): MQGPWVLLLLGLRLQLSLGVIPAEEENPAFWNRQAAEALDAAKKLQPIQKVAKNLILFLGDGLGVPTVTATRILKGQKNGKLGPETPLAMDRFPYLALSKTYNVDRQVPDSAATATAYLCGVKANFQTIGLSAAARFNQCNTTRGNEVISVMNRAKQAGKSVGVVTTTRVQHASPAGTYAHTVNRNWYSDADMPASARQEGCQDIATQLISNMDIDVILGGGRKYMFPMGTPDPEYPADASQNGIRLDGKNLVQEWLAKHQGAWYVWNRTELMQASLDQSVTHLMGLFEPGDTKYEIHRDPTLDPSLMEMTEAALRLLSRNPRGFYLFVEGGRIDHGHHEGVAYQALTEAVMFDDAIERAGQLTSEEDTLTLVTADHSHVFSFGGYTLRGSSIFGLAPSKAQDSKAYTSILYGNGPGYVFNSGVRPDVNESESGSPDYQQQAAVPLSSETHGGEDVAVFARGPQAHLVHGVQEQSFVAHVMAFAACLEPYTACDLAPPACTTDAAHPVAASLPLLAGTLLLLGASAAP
# Chain of Intestinal-type alkaline phosphatase (Mus musculus, UniProt P24822) (P24822 whole entry): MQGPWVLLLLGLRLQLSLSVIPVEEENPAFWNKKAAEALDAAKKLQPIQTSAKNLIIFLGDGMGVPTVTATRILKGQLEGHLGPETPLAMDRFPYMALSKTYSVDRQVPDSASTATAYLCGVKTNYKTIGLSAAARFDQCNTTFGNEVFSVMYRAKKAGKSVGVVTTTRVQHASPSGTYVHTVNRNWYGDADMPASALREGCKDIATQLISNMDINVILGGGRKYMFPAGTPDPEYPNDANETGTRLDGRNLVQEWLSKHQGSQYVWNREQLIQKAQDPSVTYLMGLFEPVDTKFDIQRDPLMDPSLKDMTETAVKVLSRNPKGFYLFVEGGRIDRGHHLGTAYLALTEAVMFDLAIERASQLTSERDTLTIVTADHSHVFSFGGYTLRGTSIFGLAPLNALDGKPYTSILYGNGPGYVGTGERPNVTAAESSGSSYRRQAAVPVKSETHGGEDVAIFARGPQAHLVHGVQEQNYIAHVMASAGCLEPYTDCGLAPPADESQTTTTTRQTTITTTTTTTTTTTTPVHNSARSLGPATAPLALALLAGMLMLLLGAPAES
# T2 sequence (Q00975 whole entry): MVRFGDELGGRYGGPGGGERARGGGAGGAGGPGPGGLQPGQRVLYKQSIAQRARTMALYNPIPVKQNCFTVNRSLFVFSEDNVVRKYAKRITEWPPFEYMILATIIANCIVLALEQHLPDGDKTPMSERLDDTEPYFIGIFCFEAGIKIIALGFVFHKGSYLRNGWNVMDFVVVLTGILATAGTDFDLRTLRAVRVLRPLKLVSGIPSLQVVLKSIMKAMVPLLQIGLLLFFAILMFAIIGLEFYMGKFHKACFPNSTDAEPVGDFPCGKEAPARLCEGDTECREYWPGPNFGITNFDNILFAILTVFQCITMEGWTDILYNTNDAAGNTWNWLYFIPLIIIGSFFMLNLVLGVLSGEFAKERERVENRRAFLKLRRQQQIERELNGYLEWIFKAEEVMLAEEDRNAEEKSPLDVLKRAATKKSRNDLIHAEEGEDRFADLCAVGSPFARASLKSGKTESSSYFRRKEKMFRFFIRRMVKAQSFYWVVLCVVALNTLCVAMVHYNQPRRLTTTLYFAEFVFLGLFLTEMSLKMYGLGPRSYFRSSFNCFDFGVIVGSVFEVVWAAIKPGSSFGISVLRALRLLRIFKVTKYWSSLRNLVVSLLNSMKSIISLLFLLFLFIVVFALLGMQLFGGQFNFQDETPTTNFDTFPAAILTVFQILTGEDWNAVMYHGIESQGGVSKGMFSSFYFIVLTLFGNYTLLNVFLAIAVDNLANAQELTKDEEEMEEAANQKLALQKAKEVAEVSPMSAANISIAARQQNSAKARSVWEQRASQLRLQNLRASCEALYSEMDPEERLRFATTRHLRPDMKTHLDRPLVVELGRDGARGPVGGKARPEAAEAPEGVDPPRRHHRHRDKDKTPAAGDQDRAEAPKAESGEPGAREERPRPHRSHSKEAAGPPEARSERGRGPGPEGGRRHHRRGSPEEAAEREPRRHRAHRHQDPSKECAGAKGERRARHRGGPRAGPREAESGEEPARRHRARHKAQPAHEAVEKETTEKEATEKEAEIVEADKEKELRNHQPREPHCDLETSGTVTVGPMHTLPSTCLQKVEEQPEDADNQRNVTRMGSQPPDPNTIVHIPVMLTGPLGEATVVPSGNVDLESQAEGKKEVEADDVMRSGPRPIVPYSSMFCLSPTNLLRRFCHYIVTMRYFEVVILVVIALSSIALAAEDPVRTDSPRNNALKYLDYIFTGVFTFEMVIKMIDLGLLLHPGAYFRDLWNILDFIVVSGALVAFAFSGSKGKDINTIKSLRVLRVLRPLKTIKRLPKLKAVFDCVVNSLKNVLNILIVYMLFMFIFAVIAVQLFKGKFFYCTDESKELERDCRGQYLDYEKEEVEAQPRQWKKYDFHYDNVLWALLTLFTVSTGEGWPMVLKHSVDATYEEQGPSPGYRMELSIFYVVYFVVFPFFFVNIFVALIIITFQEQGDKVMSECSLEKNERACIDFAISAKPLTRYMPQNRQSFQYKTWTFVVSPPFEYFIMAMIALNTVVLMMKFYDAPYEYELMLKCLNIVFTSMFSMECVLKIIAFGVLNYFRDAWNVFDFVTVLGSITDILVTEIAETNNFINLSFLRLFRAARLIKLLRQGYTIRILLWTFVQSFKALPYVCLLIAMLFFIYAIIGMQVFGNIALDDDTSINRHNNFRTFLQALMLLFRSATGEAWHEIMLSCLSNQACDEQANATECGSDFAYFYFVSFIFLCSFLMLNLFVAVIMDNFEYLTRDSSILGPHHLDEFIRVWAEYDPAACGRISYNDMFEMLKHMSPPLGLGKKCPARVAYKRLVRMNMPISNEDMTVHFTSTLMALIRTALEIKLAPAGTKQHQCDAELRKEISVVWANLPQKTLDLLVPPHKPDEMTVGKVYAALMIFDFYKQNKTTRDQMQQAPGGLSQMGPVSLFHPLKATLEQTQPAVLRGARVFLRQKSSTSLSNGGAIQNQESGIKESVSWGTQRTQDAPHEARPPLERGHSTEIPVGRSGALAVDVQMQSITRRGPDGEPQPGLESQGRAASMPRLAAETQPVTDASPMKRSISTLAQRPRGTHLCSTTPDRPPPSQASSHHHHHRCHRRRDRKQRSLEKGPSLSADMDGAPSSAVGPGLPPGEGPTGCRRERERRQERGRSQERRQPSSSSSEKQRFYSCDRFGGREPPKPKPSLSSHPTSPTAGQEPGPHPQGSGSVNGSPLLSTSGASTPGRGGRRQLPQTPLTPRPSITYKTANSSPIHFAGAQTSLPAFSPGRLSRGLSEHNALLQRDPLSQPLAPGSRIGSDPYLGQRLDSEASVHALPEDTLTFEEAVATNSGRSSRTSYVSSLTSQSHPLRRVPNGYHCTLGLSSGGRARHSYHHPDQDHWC
# T2 sequence (Q02410 whole entry): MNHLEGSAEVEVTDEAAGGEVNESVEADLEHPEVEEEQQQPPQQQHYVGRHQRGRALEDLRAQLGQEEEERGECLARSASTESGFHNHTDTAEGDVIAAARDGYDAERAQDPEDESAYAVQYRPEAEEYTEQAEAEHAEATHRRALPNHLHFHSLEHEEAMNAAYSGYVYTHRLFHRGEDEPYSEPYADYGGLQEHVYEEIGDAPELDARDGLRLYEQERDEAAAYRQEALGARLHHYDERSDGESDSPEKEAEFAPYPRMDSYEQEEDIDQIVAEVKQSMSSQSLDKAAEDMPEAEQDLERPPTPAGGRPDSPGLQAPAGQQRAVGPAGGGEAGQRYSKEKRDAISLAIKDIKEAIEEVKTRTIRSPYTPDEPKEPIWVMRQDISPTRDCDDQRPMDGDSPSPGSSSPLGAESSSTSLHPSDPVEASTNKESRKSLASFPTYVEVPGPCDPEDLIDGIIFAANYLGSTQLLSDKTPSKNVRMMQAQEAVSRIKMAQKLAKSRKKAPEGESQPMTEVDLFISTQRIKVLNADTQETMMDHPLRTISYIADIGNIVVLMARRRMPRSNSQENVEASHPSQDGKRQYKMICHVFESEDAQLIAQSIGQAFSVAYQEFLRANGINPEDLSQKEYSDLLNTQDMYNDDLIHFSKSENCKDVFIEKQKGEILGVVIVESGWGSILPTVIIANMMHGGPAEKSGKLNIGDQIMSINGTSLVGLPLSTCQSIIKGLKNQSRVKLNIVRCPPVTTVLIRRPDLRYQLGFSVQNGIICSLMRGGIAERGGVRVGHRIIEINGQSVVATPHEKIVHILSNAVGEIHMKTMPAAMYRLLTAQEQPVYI
# Chain of Paired box protein Pax-8 (Q06710 whole entry): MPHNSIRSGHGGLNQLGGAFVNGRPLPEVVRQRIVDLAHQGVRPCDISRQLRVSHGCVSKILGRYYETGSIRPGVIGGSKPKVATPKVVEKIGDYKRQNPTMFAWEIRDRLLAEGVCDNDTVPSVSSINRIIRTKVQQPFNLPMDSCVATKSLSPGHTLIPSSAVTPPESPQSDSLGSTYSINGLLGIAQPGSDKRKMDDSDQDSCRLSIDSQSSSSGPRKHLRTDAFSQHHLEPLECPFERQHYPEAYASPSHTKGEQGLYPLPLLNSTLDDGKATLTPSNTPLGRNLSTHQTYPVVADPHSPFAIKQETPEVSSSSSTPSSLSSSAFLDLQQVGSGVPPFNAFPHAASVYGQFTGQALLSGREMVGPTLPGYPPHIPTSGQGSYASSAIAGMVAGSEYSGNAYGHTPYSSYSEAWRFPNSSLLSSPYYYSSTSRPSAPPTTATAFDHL
structure (smiles),measurement,setting,value
O=c1c(Br)c(Br)cnn1-c1ccccc1,AC50,[1],25.4 µM (active)
same,EC50,[2],> 79.4 µM (inactive)
same,AC50,[3],2.75 µM (active)
same,AC50,Paired box protein Pax-8,8.26 µM (active)
same,AC50,[4],1.82 µM (active)
same,EC50,[5],> 79.4 µM (not active)
same,AC50,[6],14.8 µM (active)
same,EC50,[7],> 79.4 µM (not active)
same,CC50,HeLa,> 11 µM (not active)
Cc1ccn2c(-c3csc(NCc4ccco4)n3)c(C)nc2c1,EC50,[8],1.5 µM (active)
same,IC50,[9],> 50 µM (inactive)
same,IC50,[10],8.87 µM (active)
Cc1ccc(CN=C(S)NC2CCC(C(C)(C)C)CC2)cc1 (configuration not stated),EC50,[11],5.46 µM (active)
same,EC50,Streptococcus,> 150 µM (not active)
same,IC50,[12],48 µM (active)
same,IC50,[13],2.35 µM (active)
same,EC50,Streptokinase A,13.1 µM (active)
same,IC50,[14],> 100 µM (inactive)
O=S(=O)(c1ccc2nc(O)oc2c1)N1CCCCC1,IC50,[12],36.5 µM (active)
same,IC50,[13],1.67 µM (active)
same,IC50,[14],> 100 µM (inactive)
CCn1ncc(/C=N/NC(=O)c2ccc3c(c2)c(C)c(C)n3Cc2ccccc2)c1C,IC50,[15],> 100 µM (inactive)
